Measured values published in PMC10296195, “C-Methylated Spermidine Derivatives: Convenient Syntheses and Antizyme-Related Effects” (Biomolecules, 2023).
Read-outs that look alike come from different tables or passages of the source.

Biological target: T1, mOAZ1 (Mus musculus, UniProt P54369)
T1 construct: gene Oaz1; full-length mouse antizyme 1 (+1 frameshift product); expressed in E. coli Rosetta (DE3) from pET-15b-2c-His-mAZ (XhoI site)
Assay: isothermal titration calorimetry
Type: binding
Description: isothermal titration calorimetry on mOAZ1

T1 sequence (P54369 2-227): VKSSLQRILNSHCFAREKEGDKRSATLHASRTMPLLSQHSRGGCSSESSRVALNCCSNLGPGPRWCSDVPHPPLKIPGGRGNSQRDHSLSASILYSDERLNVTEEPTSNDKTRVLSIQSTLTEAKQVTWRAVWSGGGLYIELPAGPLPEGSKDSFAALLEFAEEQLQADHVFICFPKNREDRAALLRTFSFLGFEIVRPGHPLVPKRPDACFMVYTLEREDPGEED

NCCCNCCCCNCCCN [Spm]
Kd (read-out: Ka ^b, M^-1 (converted)): 370 nM | Kd (read-out: Kd ^c): 370 nM
